Molecular target: T1, mouse Tas2r117 (Mus musculus, UniProt Q7M715)
T1 construct: expressed in transfected cells; host or cells: HEK293T-Gα16gust44
T1 sequence (Q7M715 1-330): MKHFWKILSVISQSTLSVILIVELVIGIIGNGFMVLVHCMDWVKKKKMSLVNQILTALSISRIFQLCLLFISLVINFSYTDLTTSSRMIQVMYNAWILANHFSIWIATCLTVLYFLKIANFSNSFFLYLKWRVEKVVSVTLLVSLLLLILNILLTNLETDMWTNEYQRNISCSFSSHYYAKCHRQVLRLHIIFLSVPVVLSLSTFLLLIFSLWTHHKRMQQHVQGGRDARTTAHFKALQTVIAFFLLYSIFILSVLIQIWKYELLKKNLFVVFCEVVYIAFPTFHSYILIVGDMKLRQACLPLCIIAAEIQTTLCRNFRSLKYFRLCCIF
Assay: Calcium imaging assay (FLIPR), HEK293T-Gα16gust44 cells transfected with mouse Tas2r117
Assay type: cell-based
Details: for Δ F/F: Tas2r117; for RLU: sheet Tas2r117, time trace
Experimental: This set of bile acids was chosen because of their commercial availability in high purities, their diversity within the class of bile acids and their previous detection and quantitation in human blood. Stock solutions were prepared in DMSO.
As basal growth medium for the HEK293T-Gα16gust44 cell line[17],[59] served Dulbecco’s modified eagle medium (DMEM) (Thermo Fisher Scientific, Darmstadt, Germany) supplemented with 10 % fetal bovine serum (Sigma-Aldrich, Steinheim, Germany), 2 mM L-glutamine (Sigma-Aldrich, Steinheim, Germany), 100 units/ml penicillin (Sigma Aldrich, Steinheim, Germany) and 100 µg/ml streptomycin (Sigma Aldrich, Steinheim, Germany). Growth conditions were 37 °C, 5 % CO2 and saturated air-humidity[60].
HEK293T-Gα16gust44 cells were seeded on poly-D-lysine (10 µg/ml) coated 96-well plates to reach a confluence of 40-60 % the next day. For transient transfection 150 ng of plasmid DNA containing the receptor of interest and 0.3 µl lipofectamine 2000 (Thermo Fisher Scientific, Darmstadt, Germany) per well were used and transfection took place according to the manual of lipofectamine 2000. […] The empty vector DNA (mock) was transfected as negative control[14],[41].
Cells were loaded using the calcium-sensitive fluorescent dye Fluo-4-AM (Abcam, Cambridge, Great Britain) in the presence of 2.5 mM probenecid (Sigma-Aldrich, Steinheim, Germany) the day after transfection[13],[41]. 1 h after loading, cells were washed with C1 buffer using a BioTek Cell Washer, incubated in the dark for half an hour and washed again. For automated agonist application and measurement of fluorescence changes, a FLIPR^TETRA device (Molecular Devices, San José, United States) was used. Viability of cells was tested by application of 100 nM Somatostatin 14 (Bachem, Bubendorf, Switzerland)[42].
Measured data were negative control corrected by subtracting the signal of the mock-transfected cells and exported to Microsoft Excel using the FLIPR software ScreenWorks 4.2. In Microsoft Excel software, standardization of maximum fluorescence intensities to the basal fluorescence and normalization to the buffer-only control was done to calculate the relative fluorescence changes (ΔF/F).
Initial screening experiments performed in duplicate wells were confirmed by at least one replication and representative traces were selected for display. All dose-response relationships were determined by three independent experiments (biological replicates) performed in duplicates (technical replicates). Threshold concentrations, defined as lowest substance concentrations leading to statistically significant elevated fluorescence changes in receptor-transfected cells compared with empty vector-transfected cells, were determined using SigmaPlot with Student’s t-test to evaluate statistical significance (p < 0.01).

- Δ F/F (conc. 0,01 mM): 0.04745
- Δ F/F (conc. 0,1 mM): 0.1208
- Δ F/F (conc. 0,03 mM): 0.08527
- Δ F/F (conc. 0,3 mM): 0.126
- Δ F/F (conc. 0,0003 mM): 0.0009082
- Δ F/F (conc. 0,001 mM): -0.007003
- Δ F/F (conc. 0,003 mM): 0.01508
- RLU (Time (s) 0): 0 RLU
- RLU (Time (s) 2): -1.6624 RLU
- RLU (Time (s) 4): 36.4597 RLU
- RLU (Time (s) 6): 6 RLU
- RLU (Time (s) 8): 8.49 RLU
- RLU (Time (s) 12): -1.574 RLU
- RLU (Time (s) 14): -17.8222 RLU
- RLU (Time (s) 16): -9.405 RLU
- RLU (Time (s) 18): -10.6465 RLU
- RLU (Time (s) 18.797): -31.8582 RLU
- RLU (Time (s) 20.797): -50.2175 RLU
- RLU (Time (s) 22.797): -35.3697 RLU
- RLU (Time (s) 24.797): -21.9519 RLU
- RLU (Time (s) 26.797): 21.3834 RLU
- RLU (Time (s) 28.797): 104.133 RLU
- RLU (Time (s) 30.797): 136.733 RLU
- RLU (Time (s) 32.797): 195.234 RLU
- RLU (Time (s) 34.797): 290.459 RLU
- RLU (Time (s) 36.797): 340.932 RLU
- RLU (Time (s) 38.797): 397.791 RLU
- RLU (Time (s) 40.797): 414.428 RLU
- RLU (Time (s) 42.797): 437.759 RLU
- RLU (Time (s) 44.797): 439.85 RLU
- RLU (Time (s) 46.797): 450.862 RLU
- RLU (Time (s) 48.797): 498.067 RLU
- RLU (Time (s) 50.797): 490.971 RLU
- RLU (Time (s) 52.797): 511.962 RLU
- RLU (Time (s) 54.797): 520.574 RLU
- RLU (Time (s) 56.797): 524.281 RLU
- RLU (Time (s) 58.797): 554.582 RLU
- RLU (Time (s) 60.797): 523.267 RLU
- RLU (Time (s) 62.797): 554.128 RLU
- RLU (Time (s) 64.797): 560.589 RLU
- RLU (Time (s) 66.797): 586.355 RLU
- RLU (Time (s) 68.797): 595.813 RLU
- RLU (Time (s) 70.797): 569.01 RLU
- RLU (Time (s) 72.797): 587.543 RLU
- RLU (Time (s) 74.797): 600.561 RLU
- RLU (Time (s) 76.797): 625.108 RLU
- RLU (Time (s) 78.797): 601.569 RLU
- RLU (Time (s) 80.797): 601.653 RLU
- RLU (Time (s) 82.797): 613.098 RLU
- RLU (Time (s) 84.797): 590.202 RLU
- RLU (Time (s) 86.797): 586.509 RLU
- RLU (Time (s) 88.797): 591.824 RLU
- RLU (Time (s) 90.797): 608.043 RLU
- RLU (Time (s) 92.797): 567.854 RLU
- RLU (Time (s) 94.797): 592.934 RLU
- RLU (Time (s) 96.797): 555.343 RLU
- RLU (Time (s) 98.797): 591.525 RLU
- RLU (Time (s) 100.797): 565.961 RLU
- RLU (Time (s) 102.797): 558.057 RLU
- RLU (Time (s) 104.797): 568.873 RLU
- RLU (Time (s) 106.797): 600.41 RLU
- RLU (Time (s) 108.797): 557.119 RLU
- RLU (Time (s) 110.797): 566.614 RLU
- RLU (Time (s) 112.797): 544.906 RLU
- RLU (Time (s) 114.797): 533.624 RLU
- RLU (Time (s) 116.797): 578.387 RLU
- RLU (Time (s) 118.797): 540.575 RLU
- RLU (Time (s) 120.797): 553.404 RLU
- RLU (Time (s) 122.797): 531.136 RLU
- RLU (Time (s) 124.797): 541 RLU
- RLU (Time (s) 126.797): 530.303 RLU
- RLU (Time (s) 128.797): 505.327 RLU
- RLU (Time (s) 130.797): 508.223 RLU
- RLU (Time (s) 132.797): 529.676 RLU
- RLU (Time (s) 134.797): 490.998 RLU
- RLU (Time (s) 136.797): 480.544 RLU
- RLU (Time (s) 137.562): 494.151 RLU
- RLU (Time (s) 143.578): 475.248 RLU
- RLU (Time (s) 149.578): 448.977 RLU
- RLU (Time (s) 155.578): 429.963 RLU
- RLU (Time (s) 161.578): 410.536 RLU
- RLU (Time (s) 167.578): 411.276 RLU
- RLU (Time (s) 173.578): 378.737 RLU
- RLU (Time (s) 179.578): 356.849 RLU
- RLU (Time (s) 191.578): 338.845 RLU
- RLU (Time (s) 197.578): 316.205 RLU
- RLU (Time (s) 209.578): 296.441 RLU
- RLU (Time (s) 221.578): 181.834 RLU
- RLU (Time (s) 233.578): 175.03 RLU
- RLU (Time (s) 239.578): 155.758 RLU
- RLU (Time (s) 245.578): 143.461 RLU
- RLU (Time (s) 293.578): 87.8538 RLU
- RLU (Time (s) 299.578): 79.8727 RLU
- RLU (Time (s) 305.578): 78.6198 RLU
- RLU (Time (s) 311.578): 69.0671 RLU
- RLU (Time (s) 317.578): 91.9062 RLU
- RLU (Time (s) 323.578): 87.6118 RLU
- RLU (Time (s) 329.578): 65.9416 RLU
- RLU (Time (s) 335.578): 41.2589 RLU
- RLU (Time (s) 341.578): 94.1086 RLU
- RLU (Time (s) 347.578): 67.2353 RLU
- RLU (Time (s) 353.578): 54.4225 RLU
- RLU (Time (s) 359.578): 85.0918 RLU
- EC50 (calculated where receptor saturation was reached, read-out: EC50 Tas2r117): 16 ± 2.5 µM
- Activation threshold concentration Tas2r117 (p < 0.01 vs empty vector): 3 µM
SMILES: C[C@H](CCC(=O)NCC(=O)O)[C@H]1CC[C@H]2[C@@H]3[C@H](O)C[C@@H]4C[C@H](O)CC[C@]4(C)[C@H]3C[C@H](O)[C@]12C [Glycocholic Acid, glycocholic acid]
